Test results published in ChEMBL document CHEMBL4699525, “Design and synthesis of new indanol-1,2,3-triazole derivatives as potent antitubercular and antimicrobial agents” (Bioorg Med Chem Lett, 2020).
In brackets after ≈: the same amount, converted by molar mass. Activity calls are given as the source filed them. The calls are words filed in the database; no cut-off is given here.

Key:
[1] = system: Salmonella enterica subsp. enterica serovar Abony; experiment: Antibacterial activity against Salmonella abony assessed as inhibition of bacterial growth incubated for 24 hrs by agar well diffusion method; assay type: functional
[2] = system: Escherichia coli; experiment: Antibacterial activity against Escherichia coli assessed as inhibition of bacterial growth incubated for 24 hrs by agar well diffusion method; assay type: functional
[3] = system: Klebsiella aerogenes; experiment: Antibacterial activity against Enterobacter aerogenes assessed as inhibition of bacterial growth incubated for 24 hrs by agar well diffusion method; assay type: functional
[4] = system: Shigella boydii; experiment: Antibacterial activity against Shigella boydii assessed as inhibition of bacterial growth incubated for 24 hrs by agar well diffusion method; assay type: functional
[5] = biological target: T1, Enoyl-[acyl-carrier-protein] reductase [NADH] (Mycobacterium tuberculosis) (UniProt P9WGR1); experiment: Inhibition of InhA in Mycobacterium tuberculosis H37Rv assessed antitubercular activity by measuring inhibition of bacterial growth incubated for 7 days by MABA assay; settings: time 7.0 day
T1 sequence (whole entry): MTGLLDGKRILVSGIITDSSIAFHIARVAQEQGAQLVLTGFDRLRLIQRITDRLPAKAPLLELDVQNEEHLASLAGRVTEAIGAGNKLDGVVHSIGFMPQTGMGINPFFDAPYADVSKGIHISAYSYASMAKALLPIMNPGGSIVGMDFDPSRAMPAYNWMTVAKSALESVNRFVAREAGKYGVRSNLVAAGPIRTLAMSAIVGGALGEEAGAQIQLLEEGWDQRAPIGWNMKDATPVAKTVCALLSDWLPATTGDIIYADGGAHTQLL

[6] = system: Staphylococcus aureus; experiment: Antibacterial activity against Staphylococcus aureus assessed as inhibition of bacterial growth incubated for 24 hrs by agar well diffusion method; assay type: functional
[7] = system: Aspergillus niger; experiment: Antifungal activity against Aspergillus niger assessed as inhibition of fungal growth incubated for 24 hrs by agar well diffusion method; assay type: functional
[8] = system: Candida albicans; experiment: Antifungal activity against Candida albicans assessed as inhibition of fungal growth incubated for 24 hrs by agar well diffusion method; assay type: functional
[9] = system: Salmonella typhi; experiment: Antibacterial activity against Salmonella typhi assessed as inhibition of bacterial growth incubated for 24 hrs by agar well diffusion method; assay type: functional
[10] = system: Bacillus subtilis; experiment: Antibacterial activity against Bacillus subtilis assessed as inhibition of bacterial growth incubated for 24 hrs by agar well diffusion method; assay type: functional
[11] = Cytotoxicity against human HEK293 cells assessed as inhibition of cell growth at 25 uM incubated for 48 hrs by MTT assay; assay type: cell-based
[12] = system: Pseudomonas aeruginosa; experiment: Antibacterial activity against Pseudomonas aeruginosa assessed as inhibition of bacterial growth incubated for 24 hrs by agar well diffusion method; assay type: functional
[13] = system: Bacillus cereus; experiment: Antibacterial activity against Bacillus cereus assessed as inhibition of bacterial growth incubated for 24 hrs by agar well diffusion method; assay type: functional
[14] = system: Saccharomyces cerevisiae; experiment: Antifungal activity against Saccharomyces cerevisiae assessed as inhibition of fungal growth incubated for 24 hrs by agar well diffusion method; assay type: functional
[15] = system: Aspergillus niger; experiment: Antifungal activity against Aspergillus niger assessed as inhibition of […] growth incubated for overnight by CLSI based method; assay type: functional
[16] = system: Shigella boydii; experiment: Antibacterial activity against Shigella boydii assessed as inhibition of bacterial growth incubated for overnight by CLSI based method; assay type: functional
[17] = system: Klebsiella aerogenes; experiment: Antibacterial activity against Enterobacter aerogenes assessed as inhibition of bacterial growth incubated for overnight by CLSI based method; assay type: functional
[18] = system: Candida albicans; experiment: Antifungal activity against Candida albicans assessed as inhibition of […] growth incubated for overnight by CLSI based method; assay type: functional
[19] = system: Saccharomyces cerevisiae; experiment: Antifungal activity against Saccharomyces cerevisiae assessed as inhibition of […] growth incubated for overnight by CLSI based method; assay type: functional
[20] = system: Staphylococcus aureus; experiment: Antibacterial activity against Staphylococcus aureus assessed as inhibition of bacterial growth incubated for overnight by CLSI based method; assay type: functional
[21] = Salmonella enterica subsp. enterica serovar Typhi

Structure (SMILES) | diameter of the inhibition zone (DIZ) [1] | diameter of the inhibition zone (DIZ) [2] | diameter of the inhibition zone (DIZ) [3] | diameter of the inhibition zone (DIZ) [4] | MIC [5] | diameter of the inhibition zone (DIZ) [6] | diameter of the inhibition zone (DIZ) [7] | diameter of the inhibition zone (DIZ) [8] | diameter of the inhibition zone (DIZ) [9, 21] | diameter of the inhibition zone (DIZ) [10] | inhibition at 48 h, 25 µM [11] | diameter of the inhibition zone (DIZ) [12] | diameter of the inhibition zone (DIZ) [13] | diameter of the inhibition zone (DIZ) [14] | MIC [15] | MIC [18] | MIC [19] | other results
COc1ccccc1-n1cc(COc2ccc3c(c2)CCC3)nn1 | inactive | inactive | inactive | inactive | 12.5 µM (≈ 4.02 µg/mL) | 10 mm | inactive | 10 mm | inactive | inactive | 19.8% | inactive | inactive | inactive |  |  |  | 
O=C(Cn1cc(COc2ccc3c(c2)CCC3)nn1)Nc1ccccc1 | 11 mm | 11 mm | 16 mm | 11 mm | > 25 µM | 23 mm | 9 mm | 13 mm |  | 12 mm |  | 10 mm | 12 mm | 12 mm | 170 µg/mL (≈ 488 µM) | 85 µg/mL (≈ 244 µM) | 110 µg/mL (≈ 316 µM) | MIC [16]: 130 µg/mL (≈ 373 µM); MIC [17]: 80 µg/mL (≈ 230 µM); diameter of the inhibition zone (DIZ) [9]: 12 mm; MIC [20]: 140 µg/mL (≈ 402 µM)
Fc1ccccc1-n1cc(COc2ccc3c(c2)CCC3)nn1 | inactive | inactive | inactive | inactive | 6.25 µM (≈ 1.93 µg/mL) | 15 mm | inactive | 9 mm | inactive | inactive | 21% | inactive | inactive | 10 mm |  |  |  | 
Cc1cccc(-n2cc(COc3ccc4c(c3)CCC4)nn2)c1 | inactive | inactive | inactive | inactive | 12.5 µM (≈ 3.82 µg/mL) | 6 mm | inactive | 10 mm | inactive | inactive | 23.4% | inactive | inactive | 13 mm |  |  |  | 
COc1cccc(-n2cc(COc3ccc4c(c3)CCC4)nn2)c1 | 11 mm | 10 mm | inactive | 13 mm | 12.5 µM (≈ 4.02 µg/mL) | 12 mm |  | 12 mm |  | inactive | 25.8% | 9 mm | inactive | inactive |  |  |  | 
OC(Cn1cncn1)(Cn1cncn1)c1ccc(F)cc1F [FLUCONAZOLE] |  |  |  |  |  |  | 30 mm | 30 mm |  |  |  |  |  | 30 mm | 8 µg/mL (≈ 26.1 µM) | 25 µg/mL (≈ 81.6 µM) | 12 µg/mL (≈ 39.2 µM) | 
